Legend:
[1] = biological target: human neutrophil elastase (HNE) (Homo sapiens (Human), UniProt P08246); assay: In vitro HNE inhibition assay; assay type: biochemical; conditions: HNE concentration of 80 pM; substrate MeOSuc-Ala-Ala-Pro-Val-AMC; 37° C. for 2 hours
Procedure: B-1. In Vitro HNE Inhibition Assay
The potency of the compounds of the invention is ascertained in an in vitro inhibition assay. The HNE-mediated amidolytic cleavage of a suitable peptide substrate leads in this connection to an increase in the fluorescent light. The signal intensity of the fluorescent light is directly proportional to the enzyme activity.
Enzyme ([…]; from Serva, Heidelberg) and substrate (20 μM MeOSuc-Ala-Ala-Pro-Val-AMC; from Bachem, Weil am Rhein) are incubated in an assay volume of in total 50 μl of assay buffer (0.1 M HEPES pH 7.4, 0.5 M NaCl, 0.1% w/v BSA, 1% v/v DMSO) in a 384-well microtiter plate in the presence and absence of the test substance at 37° C. for 2 hours. […] The IC50 values are determined by plotting the intensity of the fluorescent light against the active substance concentration.

rat hepatocytes = assay: Hepatocyte assay to determine the metabolic stability; assay type: in vitro ADME; conditions: after incubation with rat hepatocytes
Procedure: B-6. Hepatocyte Assay to Determine the Metabolic Stability
The metabolic stability of test compounds in the presence of hepatocytes is determined by incubating the compounds with low concentrations (preferably below or around 1 μM) and with low cell counts (preferably 1*10^6 cells/ml) in order to ensure as far as possible linear kinetic conditions in the experiment. Seven samples of the incubation solution are taken in a fixed time pattern for the […] analysis in order to determine the half-life (i.e. the degradation) of the compound in each case. Various clearance parameters (CL) and Fmax values are calculated from this half-life (see below).
The Cl and Fmax values represent a measure of the phase 1 and phase 2 metabolism of the compounds in the hepatocytes. In order to minimize the influence of the organic solvent on the enzymes in the incubation mixtures, this concentration is generally limited to 1% (acetonitrile) or 0.1% (DMSO).
A cell count for hepatocytes in the liver of 1.1*10^8 cells/g of liver is used for calculation for all species and breeds.
The calculated parameters and their meaning are:
Representative values for the compounds according to the invention from this assay after incubation of the compounds with rat hepatocytes are shown in Table B below: […]

human neutrophil elastase (HNE), sequence (P08246 30-267): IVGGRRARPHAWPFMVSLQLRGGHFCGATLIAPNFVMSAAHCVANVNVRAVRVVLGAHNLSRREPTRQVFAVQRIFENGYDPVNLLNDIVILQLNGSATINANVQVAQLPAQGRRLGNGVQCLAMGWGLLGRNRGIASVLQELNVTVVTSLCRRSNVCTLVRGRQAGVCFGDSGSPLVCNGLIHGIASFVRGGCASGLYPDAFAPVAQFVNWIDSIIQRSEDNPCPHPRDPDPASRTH

Compound	IC50 [1]	CLblood, calculated blood clearance (well stirred model) (rat hepatocytes)	Fmax, maximum possible bioavailability after oral administration (well-stirred) (rat hepatocytes)
[C-]#[N+]C1=C(C)N(c2cccc(C(F)(F)F)c2)C(=O)N[C@@H]1c1ccc(C#N)cc1[S@+](C)[O-] (single isomer, unassigned; diastereomer 1) [Example 43 (Diastereomer 1)]	0.3 nM	21.7 mL/min/kg	69%
CC1=C(C#N)[C@@H](c2ccc(C#N)cc2S(C)(=O)=O)N(C(=O)N2CCN(c3ccccn3)CC2)C(=O)N1c1cccc(C(F)(F)F)c1 [Example 69]	0.9 nM		
CC1=C(C#N)[C@@H](c2ccc(C#N)cc2S(C)(=O)=O)N(CC(N)=O)C(=O)N1c1cccc(C(F)(F)F)c1 [Example 22, 2-[(6S)-5-Cyano-6-[4-cyano-2-(methylsulfonyl)phenyl]-4-methyl-2-oxo-3-[3-(trifluoromethyl)phenyl]-3,6-dihydropyrimidin-1(2H)-yl]acetamide]	0.45 nM	3.3 mL/min/kg	95%
CC(=O)C1=C(C)N(c2cccc(C(F)(F)F)c2)C(=O)N[C@@H]1c1ccc(C#N)cc1S(C)(=O)=O [Example 2, 4-{(4S)-5-Acetyl-6-methyl-2-oxo-1-[3-(trifluoromethyl)phenyl]-1,2,3,4-tetrahydropyrimidin-4-yl}-3-(methylsulfonyl)benzonitrile]	10 nM		
CCS(=O)(=O)c1cc(C#N)ccc1[C@@H]1C(C#N)=C(C)N(c2cccc(C(F)(F)F)c2)C(=O)N1C [Example 128, (4S)-4-[4-Cyano-2-(ethylsulfonyl)phenyl]-3,6-dimethyl-2-oxo-1-[3-(trifluoromethyl)phenyl]-1,2,3,4-tetrahydropyrimidine-5-carbonitrile]	< 0.3 nM	15 mL/min/kg	78%
CC1=C(C#N)[C@@H](c2ccc(C#N)cc2S(C)(=O)=O)N(C(=O)NC(C)(C)CO)C(=O)N1c1cccc(C(F)(F)F)c1 [Example 85]	< 0.3 nM		
CC1=C(C#N)C(c2ccc(C#N)cc2S(=O)(=O)CCO)NC(=O)N1c1cccc(C(F)(F)F)c1 (racemic) [Example 132, (rac)-4-[4-Cyano-2-((2-hydroxyethyl)sulfonyl)phenyl]-6-methyl-2-oxo-1-[3-(trifluoromethyl)phenyl]-1,2,3,4-tetrahydropyrimidine-5-carbonitrile]	1.1 nM		
CC1=C(C#N)[C@@H](c2ccc(C#N)cc2S(C)(=O)=O)N(S(=O)(=O)c2cnn(C(F)F)c2C)C(=O)N1c1cccc(C(F)(F)F)c1 [Example 96]	< 0.3 nM		
CC1=C(C#N)[C@@H](c2ccc(C#N)cc2S(C)(=O)=O)N(C(=O)N2CCN(CCO)CC2)C(=O)N1c1cccc(C(F)(F)F)c1 [Example 20, (4S)-4-[4-Cyano-2-(methylsulfonyl)phenyl]-3-{[4-(2-hydroxyethyl)piperazin-1-yl]carbonyl}-6-methyl-2-oxo-1-[3-(trifluoromethyl)phenyl]-1,2,3,4-tetrahydropyrimidine-5-carbonitrile]	1.9 nM		
CC1=C(C#N)[C@@H](c2ccc(C#N)cc2S(C)(=O)=O)N(S(C)(=O)=O)C(=O)N1c1cccc(C(F)(F)F)c1 [Example 27, (4S)-4-[4-Cyano-2-(methylsulfonyl)phenyl]-6-methyl-3-(methylsulfonyl)-2-oxo-1-[3-(trifluoromethyl)phenyl]-1,2,3,4-tetrahydropyrimidine-5-carbonitrile]	< 0.3 nM	6.7 mL/min/kg	91%

Continued, values first:

IC50 [1]	CLblood, calculated blood clearance (well stirred model) (rat hepatocytes)	Fmax, maximum possible bioavailability after oral administration (well-stirred) (rat hepatocytes)	Compound
< 0.3 nM	1.7 mL/min/kg	97%	CC1=C(C#N)[C@@H](c2ccc(C#N)cc2S(C)(=O)=O)N(S(=O)(=O)C2CC2)C(=O)N1c1cccc(C(F)(F)F)c1 [Example 32, (4S)-4-[4-Cyano-2-(methylsulfonyl)phenyl]-6-methyl-3-(cyclopropylsulfonyl)-2-oxo-1-[3-(trifluoromethyl)phenyl]-1,2,3,4-tetrahydropyrimidine-5-carbonitrile]
< 0.3 nM	6.7 mL/min/kg	89%	CN1CC2=C(C1=O)[C@@H](c1ccc(C#N)cc1S(C)(=O)=O)N(S(C)(=O)=O)C(=O)N2c1cccc(C(F)(F)F)c1 [Example 36, 4-{(4S)-6-Methyl-3-(methylsulfonyl)-2,5-dioxo-1-[3-(trifluoromethyl)phenyl]-2,3,4,5,6,7-hexahydro-1H-pyrrolo[3,4-d]pyrimidin-4-yl}-3-(methylsulfonyl)benzonitrile]
< 0.3 nM	6.7 mL/min/kg	91%	CC1=C(C#N)[C@@H](c2ccc(C#N)cc2S(C)(=O)=O)N(CC#N)C(=O)N1c1cccc(C(F)(F)F)c1 [Example 116, (4S)-3-(Cyanomethyl)-4-[4-cyano-2-(methylsulfonyl)phenyl]-6-methyl-2-oxo-1-[3-(trifluoromethyl)phenyl]-1,2,3,4-tetrahydropyrimidine-5-carbonitrile]
< 0.3 nM			CC1=C(C#N)[C@@H](c2ccc(C#N)cc2S(C)(=O)=O)N(C(=O)N2CCC[C@@H](N)C2)C(=O)N1c1cccc(C(F)(F)F)c1 [Example 55, (4S)-3-[(3R)-3-Aminopiperidin-1-yl]carbonyl-4-[4-cyano-2-(methylsulfonyl)phenyl]-6-methyl-2-oxo-1-[3-(trifluoromethyl)phenyl]-1,2,3,4-tetrahydropyrimidine-5-carbonitrile]
< 0.3 nM	28.3 mL/min/kg	59%	CC1=C(C#N)[C@@H](c2ccc(C#N)cc2S(C)(=O)=O)N(C(=O)NN(CCO)CCO)C(=O)N1c1cccc(C(F)(F)F)c1 [Example 12, (6S)-5-Cyano-6-[4-cyano-2-(methylsulfonyl)phenyl]-N′,N′-bis(2-hydroxyethyl)-4-methyl-2-oxo-3-[3-(trifluoromethyl)phenyl]-3,6-dihydropyrimidine-1(2H)-carbohydrazide]
< 0.3 nM	12 mL/min/kg	83%	CC1=C(C#N)[C@@H](c2ccc(C#N)cc2S(C)(=O)=O)N(S(=O)(=O)c2ccc(F)cc2)C(=O)N1c1cccc(C(F)(F)F)c1 [Example 91]
< 0.3 nM			CC1=C(C#N)[C@@H](c2ccc(C#N)cc2S(C)(=O)=O)N(C(=O)N2CC[C@H](O)C2)C(=O)N1c1cccc(C(F)(F)F)c1 [Example 18, (4S)-4-[4-Cyano-2-(methylsulfonyl)phenyl]-3-{[(3S)-3-hydroxypyrrolidin-1-yl]carbonyl}-6-methyl-2-oxo-1-[3-(trifluoromethyl)phenyl]-1,2,3,4-tetrahydropyrimidine-5-carbonitrile]
< 0.3 nM			CC1=C(C#N)[C@@H](c2ccc(C#N)cc2S(C)(=O)=O)N(C(=O)N2CC(O)C2)C(=O)N1c1cccc(C(F)(F)F)c1 [Example 51, (4S)-4-[4-Cyano-2-(methylsulfonyl)phenyl]-3-[(3-hydroxyazetidin-1-yl)carbonyl]-6-methyl-2-oxo-1-[3-(trifluoromethyl)phenyl]-1,2,3,4-tetrahydropyrimidine-5-carbonitrile]
< 0.3 nM			CC1=C(C#N)[C@@H](c2ccc(C#N)cc2S(C)(=O)=O)N(C(=O)NCCOCCO)C(=O)N1c1cccc(C(F)(F)F)c1 [Example 14, (6S)-5-Cyano-6-[4-cyano-2-(methylsulfonyl)phenyl]-N-[2-(2-hydroxyethoxy)ethyl]-4-methyl-2-oxo-3-[3-(trifluoromethyl)phenyl]-3,6-dihydropyrimidine-1(2H)-carboxamide]
< 0.3 nM			CC1=C(C#N)[C@@H](c2ccc(C#N)cc2S(C)(=O)=O)N(S(=O)(=O)c2ccccc2C#N)C(=O)N1c1cccc(C(F)(F)F)c1 [Example 103]
< 0.3 nM	25 mL/min/kg	65%	CC1=C(C#N)[C@@H](c2ccc(C#N)cc2S(C)(=O)=O)N(C(=O)NCCO)C(=O)N1c1cccc(C(F)(F)F)c1 [Example 10, (6S)-5-Cyano-6-[4-cyano-2-(methylsulfonyl)phenyl]-N-(2-hydroxyethyl)-4-methyl-2-oxo-3-[3-(trifluoromethyl)phenyl]-3,6-dihydropyrimidine-1(2H)-carboxamide]

Source: patent US9174997B2, “4-(4-cyano-2-thioaryl)dihydropyrimidinones and use thereof” (Bayer Intellectual Property GmbH, priority 2007, dated 2015)
